# Source: patent publication US6335030B1, “Transdermally administered dextromethorphan as antitussive agent” (Pharmacia & Upjohn AB, priority 1996, dated 2002)
# Assays:
# [1] = in vivo; cited from earlier work
# [2] = peroral, dogs; cited from earlier work
# [3] = cited from earlier work
# [4] = In vitro skin permeation in Franz diffusion cells; assay type: in vitro ADME, pig
# Excerpt: Quantitative determination of dextromethorphan in the receptor solution samples from the skin permeation studies in Example 3 and from the membrane permeation studies in Example 4 was done by the HPLC method described under Apparatus.
# In vitro permeation of dextromethorphan from the solutions 1, 2, 3, 4, 5, 6, 7 and 8 through dermatomed pig skin was investigated in Franz diffusion Cells.
# Skin pieces with a thickness of approximately 765 μm were dermatomed from full thickness pig skin and mounted in glass diffusion cells with an available diffusion area of 1.8 cm^2. Pig skin is a fully accepted model for human skin. The solutions were applied separately on the skin surfaces and the dermal sides were all exposed to 12.1 ml receptor solution consisting of a 0.05M phosphate buffer solution of pH 7.4 equilibrated to 37±1° C.
# Permeation of dextromethorphan was followed by removing samples periodically and measuring the concentration by the HPLC method according to Example 2. An increase in the permeated amount of dextromethorphan is seen in the following order: Water, isopropyl myristate, propylene glycol, propylene glycol containing 5% azone, water containing 1% hydroxpropyl-b-cyclodextrine, water containing 1% b-cyclodextrine, ethanol and ethyl acetate used as solvents. The maximal observed flux of dextromethorphan is 21 μg/cm^2/h and the range is from approximately 0.5 to 21 μg/cm^2/h.
# [5] = in vivo; cited from earlier work; remark: listed apart in the source
smiles,measurement,setting,value
"COc1ccc2c(c1)[C@]13CCCC[C@@H]1[C@H](C2)N(C)CC3 [dextromethorphan, (+)-3-methoxy-17-methyl-9a,13a,14a-morphinan]",half-life,[1],4 to 6 h
same,absolute bioavailability,[2],3.8%
same,effect on coughing frequency and intensity compared to placebo,"[3]; 40 mg perorally, tussometri",significant effect on reducing coughing frequency as well as intensity
same,antitussive effect upon inhalation,[3]; inhalation of 1-30 mg,has not shown any antitussive effect
same,maximal observed flux through skin,"[4]; dermatomed pig skin, solutions 1-8, receptor phosphate buffer pH 7.4, 37°C",21 μg/cm^2/h
same,change of flux depending on solvent,"[4]; ethanol, ethyl acetate or addition of cyclodextrines as solvent",remarkable increase in the fluxes
same,safety,[5],safe drug
same,side-effects compared with codeine and noscapine,[5],fewer side-effects
